According to patent US10759817B2, “Gadolinium complex, method for synthesis of the gadolinium complex, and MRI contrast agent including the gadolinium complex” (Kyungpook National University Industry-Academic Cooperation …, priority 2018, dated 2020):

Experiment: Relaxibity (r1, r2) measurement by MRI at 1.5 T and 9.4 T
Format: physicochemical
Text: In accordance with the present disclosure, the relaxibity (unit mM^−1 s^−1) is obtained using an inversion recovery according to the inversion time (T1). More specifically, signal intensities at varying inversion times T1 are acquired. Then, the signal intensities are subjected to a minimum non-linear fitting (NLF) to obtain the relaxation time (s). Then, the relaxibity (unit mM^−1 s^−1) is obtained using the relaxation time (s) and the concentration (mM) of the contrast agent. The gadolinium complex represented by the Chemical Formula 1 has the relaxibity defined as above which is at least 4 mM^−1 s^−1 not only in the normal magnetic field range of 1.5 T but also in the high magnetic field of 7 T or greater.
The relaxibity for the gadolinium complex GdL^b as obtained above was measured at magnetic field strengths of 1.5 T and 9.4 T respectively as follows.
T1 relaxation time was checked using inversion recovery according to various T1 (inversion times). […] The T2 relaxation time is determined as follows. […] For TEs, mean values of pixels for various spin-echo measurements were calculated using a nonlinear fitting method. Then, the T2 relaxation time was calculated using the spin-echo measurements. The relaxibity (mM^−1s^−1) was calculated as an inverse of a relaxation time (s) for the contrast agent 1 mM. We calculated r1 using the T1 relaxation time and r2 using the T2 relaxation time. […]

Q: With `O=C([O-])CN1CCN(CC(=O)[O-])CCN([C@H](CO)[C@H](O)CO)CCN(CC(=O)[O-])CC1.[Gd+3]` (racemic) [Gadovist ®, gadobutrol] as the compound, how does the “Relaxibity r1” value (magnetic field 1.5 T) read?
A: 4.06 mM⁻¹ s⁻¹

Q: What about the “Relaxibity r1” value (magnetic field 9.4 T) of the same compound?
A: 2.96 mM⁻¹ s⁻¹
